Test results: PMC9661477, “New Dual P-Glycoprotein (P-gp) and Human Carbonic Anhydrase XII (hCA XII) Inhibitors as Multidrug Resistance (MDR) Reversers in Cancer Cells” (Journal of Medicinal Chemistry, 2022)

Tests used:
[1] = tested on: HT29/DOX cells; test: intracellular accumulation of doxorubicin in HT29/DOX cells; format: cell-based, human; settings: 24 h with 5 μM doxorubicin, compound at 1 and 3 μM, dose-dependent
Description: (§1) A 50 μL aliquot was sonicated and used for the measurement of the protein content. […] Fluorescence was converted in nmol/mg cell proteins using a calibration curve previously set.

[2] = molecular target: hCA IX (Homo sapiens, UniProt Q16790); test: stopped-flow CO2 hydrase assay, hCA IX; settings: read-out: Ki hCA IX; stopped-flow technique, mean from three different assays
Description: (§5) An SX.18MV-R Applied Photophysics (Oxford, U.K.) stopped-flow instrument has been used to assay the catalytic/inhibition of various CA isozymes.[38] […] The inhibition constants were obtained by nonlinear least-squares methods using the Cheng–Prusoff equation, as reported earlier,[32] and represent the mean from at least three different determinations.

[3] = molecular target: hCA I (Homo sapiens, UniProt P00915); test: stopped-flow CO2 hydrase assay, hCA I; settings: read-out: Ki hCA I; stopped-flow technique, mean from three different assays
Sequence of hCA I (P00915 whole entry): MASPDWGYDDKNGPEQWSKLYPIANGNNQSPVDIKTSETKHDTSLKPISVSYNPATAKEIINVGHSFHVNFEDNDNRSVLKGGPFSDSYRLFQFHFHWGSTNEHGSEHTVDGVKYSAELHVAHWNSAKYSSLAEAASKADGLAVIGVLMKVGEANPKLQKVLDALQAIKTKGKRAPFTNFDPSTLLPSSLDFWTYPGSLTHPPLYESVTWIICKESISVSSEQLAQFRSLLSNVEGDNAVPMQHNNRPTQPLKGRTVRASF
Description: as §5

[4] = tested on: P-gp KO A549/DOX cells; test: intracellular accumulation of doxorubicin in P-gp KO A549/DOX cells; format: cell-based, human; settings: 24 h with 5 μM doxorubicin, compound at 1 and 3 μM
Description: as §1

[5] = molecular target: T1, P-gp (Homo sapiens, UniProt P08183); test: calcein-AM transport inhibition in MDCK-MDR1 cells; format: cell-based; settings: mean ± SEM
T1 construct: expressed in transfected cells; host or cells: MDCK-MDR1 (Madin-Darby Canine Kidney, transfected; gift from Prof; P. Borst, NKI-AVL)
T1 sequence (P08183 whole entry): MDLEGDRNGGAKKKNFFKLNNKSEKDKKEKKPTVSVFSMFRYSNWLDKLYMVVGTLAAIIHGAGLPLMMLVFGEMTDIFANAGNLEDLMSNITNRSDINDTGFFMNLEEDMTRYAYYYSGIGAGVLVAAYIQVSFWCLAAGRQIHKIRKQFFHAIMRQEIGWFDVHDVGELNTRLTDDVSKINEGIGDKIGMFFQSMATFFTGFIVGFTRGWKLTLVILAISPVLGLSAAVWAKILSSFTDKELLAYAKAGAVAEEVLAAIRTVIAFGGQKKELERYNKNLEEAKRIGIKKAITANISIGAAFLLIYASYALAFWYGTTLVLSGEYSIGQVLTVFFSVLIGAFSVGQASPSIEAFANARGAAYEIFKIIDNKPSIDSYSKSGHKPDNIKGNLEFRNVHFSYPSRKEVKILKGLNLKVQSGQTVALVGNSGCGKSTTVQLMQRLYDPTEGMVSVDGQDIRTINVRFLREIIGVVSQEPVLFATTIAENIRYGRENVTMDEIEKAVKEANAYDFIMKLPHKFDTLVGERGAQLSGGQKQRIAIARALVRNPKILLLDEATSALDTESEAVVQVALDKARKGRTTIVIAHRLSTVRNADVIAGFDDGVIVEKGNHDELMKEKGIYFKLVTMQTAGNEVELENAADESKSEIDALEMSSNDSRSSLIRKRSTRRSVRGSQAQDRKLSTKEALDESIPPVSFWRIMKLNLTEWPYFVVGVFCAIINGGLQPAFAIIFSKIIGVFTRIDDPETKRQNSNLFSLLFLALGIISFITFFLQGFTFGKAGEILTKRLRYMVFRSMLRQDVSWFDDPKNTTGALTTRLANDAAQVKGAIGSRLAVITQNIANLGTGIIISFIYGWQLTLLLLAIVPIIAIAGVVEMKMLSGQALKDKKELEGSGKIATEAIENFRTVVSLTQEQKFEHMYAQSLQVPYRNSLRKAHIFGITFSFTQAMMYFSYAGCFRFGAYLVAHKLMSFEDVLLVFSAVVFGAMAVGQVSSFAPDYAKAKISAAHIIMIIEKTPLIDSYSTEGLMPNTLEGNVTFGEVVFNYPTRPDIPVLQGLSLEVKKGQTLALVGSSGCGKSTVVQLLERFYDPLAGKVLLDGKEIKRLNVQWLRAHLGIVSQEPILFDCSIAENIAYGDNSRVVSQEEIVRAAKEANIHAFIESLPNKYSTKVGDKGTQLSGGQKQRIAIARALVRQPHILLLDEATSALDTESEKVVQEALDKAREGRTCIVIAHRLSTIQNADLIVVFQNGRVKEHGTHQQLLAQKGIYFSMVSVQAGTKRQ
Description: (§2) The inhibiting activity of the two compounds on P-gp and MRP1 was evaluated by measuring the transport inhibition of the profluorescent probe calcein-AM (P-gp and MRP1 substrate) in MDCK-MDR1 and MDCK-MRP1 cells (P-gp- and MRP1-overexpressing cells, respectively). The activity on BCRP was instead evaluated using the fluorescent probe Hoechst 33342 (BCRP substrate) in MDCK-BCRP cells (BCRP-overexpressing cells).[43]
(§3) MDCK-MDR1, MDCK-MRP1, and MDCK-BCRP cells are a gift from Prof. P. Borst, NKI-AVL Institute, Amsterdam, The Netherlands. Cells were grown in Dulbecco’s modified Eagle’s medium (DMEM) high glucose supplemented with 10% fetal bovine serum, 2 mM glutamine, 100 U/mL of penicillin, and 100 μg/mL of streptomycin in a humidified incubator at 37 °C with a 5% CO2 atmosphere. Cell culture reagents were purchased from Celbio s.r.l. (Milano, Italy). CulturePlate 96/wells plates were purchased from PerkinElmer Life Science (Waltham, MA) and Falcon (BD Biosciences, Bedford, MA). Calcein-AM and Hoechst 33342 (bisbenzimide H 33342 trihydrochloride) were obtained from Sigma-Aldrich (Milan, Italy). The other reagents were purchased from Sigma Merck Millipore.

[6] = molecular target: hCA II (Homo sapiens, UniProt P00918); test: stopped-flow CO2 hydrase assay, hCA II; settings: read-out: Ki hCA II; stopped-flow technique, mean from three different assays
Description: as §5

[7] = tested on: A549/DOX cells; test: intracellular accumulation of doxorubicin in A549/DOX cells; format: cell-based, human; settings: 24 h with 5 μM doxorubicin, compound at 1 and 3 μM, dose-dependent
Description: as §1

[8] = tested on: P-gp KO HT29/DOX cells; test: intracellular accumulation of doxorubicin in P-gp KO HT29/DOX cells; format: cell-based, human; settings: 24 h with 5 μM doxorubicin, compound at 1 and 3 μM
Description: as §1

[9] = molecular target: T2, MRP1 (Homo sapiens, UniProt P33527); test: calcein-AM transport inhibition in MDCK-MRP1 cells; format: cell-based; settings: NA, not active
T2 construct: expressed in transfected cells; host or cells: MDCK-MRP1 (Madin-Darby Canine Kidney, transfected; gift from Prof; P. Borst, NKI-AVL)
T2 sequence (P33527 whole entry): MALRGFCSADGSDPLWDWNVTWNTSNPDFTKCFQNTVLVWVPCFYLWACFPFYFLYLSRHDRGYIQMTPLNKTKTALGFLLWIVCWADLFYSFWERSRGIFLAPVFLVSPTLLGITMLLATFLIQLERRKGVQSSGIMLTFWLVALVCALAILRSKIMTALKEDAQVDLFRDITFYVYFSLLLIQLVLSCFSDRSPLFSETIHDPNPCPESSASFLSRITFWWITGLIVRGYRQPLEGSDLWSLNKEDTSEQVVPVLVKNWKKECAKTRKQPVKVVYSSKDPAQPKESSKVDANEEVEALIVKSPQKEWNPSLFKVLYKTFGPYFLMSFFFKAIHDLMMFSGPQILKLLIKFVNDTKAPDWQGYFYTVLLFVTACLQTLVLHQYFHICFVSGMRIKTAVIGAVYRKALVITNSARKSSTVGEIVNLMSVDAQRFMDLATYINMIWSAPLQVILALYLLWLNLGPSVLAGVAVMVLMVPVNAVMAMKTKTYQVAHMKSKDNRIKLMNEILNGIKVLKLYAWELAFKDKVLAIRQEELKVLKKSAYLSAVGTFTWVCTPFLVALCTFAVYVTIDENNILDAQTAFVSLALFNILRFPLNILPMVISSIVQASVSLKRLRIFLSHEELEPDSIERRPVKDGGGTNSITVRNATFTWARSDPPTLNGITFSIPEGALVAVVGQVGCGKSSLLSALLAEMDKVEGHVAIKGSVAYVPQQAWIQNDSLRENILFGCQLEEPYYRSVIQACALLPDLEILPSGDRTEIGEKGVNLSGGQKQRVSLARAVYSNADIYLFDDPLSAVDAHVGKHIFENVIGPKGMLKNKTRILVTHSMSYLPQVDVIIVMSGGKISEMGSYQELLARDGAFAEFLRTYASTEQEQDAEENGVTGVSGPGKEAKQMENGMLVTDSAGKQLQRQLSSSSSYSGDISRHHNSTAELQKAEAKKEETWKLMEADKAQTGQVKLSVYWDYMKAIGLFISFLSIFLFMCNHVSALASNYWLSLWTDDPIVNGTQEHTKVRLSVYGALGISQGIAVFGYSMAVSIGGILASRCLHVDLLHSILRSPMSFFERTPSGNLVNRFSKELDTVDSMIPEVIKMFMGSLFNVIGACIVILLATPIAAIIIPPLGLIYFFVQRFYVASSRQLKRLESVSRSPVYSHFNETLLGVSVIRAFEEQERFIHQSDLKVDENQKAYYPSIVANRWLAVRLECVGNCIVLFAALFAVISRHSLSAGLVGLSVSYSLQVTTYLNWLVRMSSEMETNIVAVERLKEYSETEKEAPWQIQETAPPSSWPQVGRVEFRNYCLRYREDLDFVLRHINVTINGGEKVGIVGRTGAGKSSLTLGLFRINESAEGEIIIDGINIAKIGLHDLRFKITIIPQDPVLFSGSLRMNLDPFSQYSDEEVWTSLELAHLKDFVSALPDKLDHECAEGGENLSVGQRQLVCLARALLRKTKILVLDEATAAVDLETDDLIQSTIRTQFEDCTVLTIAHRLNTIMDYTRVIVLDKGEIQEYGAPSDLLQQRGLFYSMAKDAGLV
Description: as §2, §3

[10] = molecular target: T3, BCRP (Homo sapiens, UniProt Q9UNQ0); test: Hoechst 33342 transport inhibition in MDCK-BCRP cells; format: cell-based; settings: NA, not active
T3 construct: expressed in transfected cells; host or cells: MDCK-BCRP (Madin-Darby Canine Kidney, transfected; gift from Prof; P. Borst, NKI-AVL)
T3 sequence (Q9UNQ0 1-655): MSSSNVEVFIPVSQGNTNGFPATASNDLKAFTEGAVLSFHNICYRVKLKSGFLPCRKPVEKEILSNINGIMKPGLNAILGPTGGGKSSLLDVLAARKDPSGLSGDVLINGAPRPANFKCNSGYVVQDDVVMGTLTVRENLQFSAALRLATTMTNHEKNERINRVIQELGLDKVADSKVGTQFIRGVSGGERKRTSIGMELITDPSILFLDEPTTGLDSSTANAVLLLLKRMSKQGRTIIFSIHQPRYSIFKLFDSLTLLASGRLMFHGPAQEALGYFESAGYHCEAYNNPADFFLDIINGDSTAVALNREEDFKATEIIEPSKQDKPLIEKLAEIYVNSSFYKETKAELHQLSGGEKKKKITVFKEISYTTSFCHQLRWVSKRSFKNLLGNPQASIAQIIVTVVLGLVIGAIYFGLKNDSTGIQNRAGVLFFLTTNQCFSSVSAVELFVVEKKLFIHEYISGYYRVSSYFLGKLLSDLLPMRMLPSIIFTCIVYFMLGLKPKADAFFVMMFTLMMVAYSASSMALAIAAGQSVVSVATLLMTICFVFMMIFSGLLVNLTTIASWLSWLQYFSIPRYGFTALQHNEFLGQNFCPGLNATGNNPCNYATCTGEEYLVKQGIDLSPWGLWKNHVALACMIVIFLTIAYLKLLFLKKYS
Description: as §2, §3

[11] = tested on: P-gp KO HT29/DOX cells; test: cells; settings: Homo sapiens, HT-29, read-out: IC50 of doxorubicin
[12] = tested on: HT29/DOX cells; test: kinetic parameters of doxorubicin efflux in HT29/DOX cells; format: cell-based, human; settings: doxorubicin alone
Description: (§4) Cells were incubated for 3 h with 5 μM doxorubicin, alone or with the selected compounds, washed with PBS, trypsinized, centrifuged at 13 000g for 5 min, and resuspended in 0.5 mL of 1/1 solution ethanol/0.3 N HCl. […] To calculate the kinetic parameters, cells were incubated for 20 min with increasing (0–100 μM) concentrations of doxorubicin, alone or with the indicated compounds, then analyzed for the intracellular concentration of doxorubicin. […] The difference in the doxorubicin concentration between the two series, expressed as nmol doxorubicin extruded/min/mg cell proteins, was plotted versus the initial drug concentration.[69] Values were fitted to the Michaelis–Menten equation to calculate Vmax and Km, using the Enzfitter software (Biosoft Corporation, Cambridge, United Kingdom).

[13] = tested on: A549/DOX cells; test: cells; settings: Homo sapiens, A549, 72 h, read-out: IC50 of doxorubicin
[14] = tested on: HT29 cells; test: kinetic parameters of doxorubicin efflux in HT29 cells; format: cell-based, human; settings: doxorubicin alone
Description: as §4

[15] = tested on: hCA XII KO A549/DOX cells; test: doxorubicin cytotoxicity enhancement assay in hCA XII KO A549/DOX cells; format: cell-based; settings: Homo sapiens
[16] = tested on: HT29 cells; test: doxorubicin cytotoxicity in HT29 cells; format: cell-based; settings: Homo sapiens, HT-29, 72 h, MTT
Description: Human chemosensitive colon cancer HT29 cells, lung cancer A549 cells, not-transformed human colon epithelial EpiCoC cells, and lung epithelial BEAS-2B cells were purchased from ATCC (Manassas, VA). […] Cells were maintained in media supplemented with 10% v/v fetal bovine serum, 1% v/v penicillin–streptomycin, and 1% v/v L-glutamine. […] Knockout efficacy was evaluated by immunoblotting, as reported below.

[17] = tested on: HT29/DOX cells; test: cells; settings: Homo sapiens, HT-29, 72 h, read-out: IC50 of doxorubicin
[18] = tested on: A549/DOX cells; test: kinetic parameters of doxorubicin efflux in A549/DOX cells; format: cell-based, human; settings: doxorubicin alone
Description: as §4

[19] = tested on: hCA XII KO HT29/DOX cells; test: doxorubicin cytotoxicity enhancement assay in hCA XII KO HT29/DOX cells; format: cell-based; settings: Homo sapiens, HT-29
[20] = tested on: hCA XII KO A549/DOX cells; test: kinetic parameters of doxorubicin efflux in hCA XII KO A549/DOX cells; format: cell-based, human; settings: doxorubicin alone
Description: as §4

[21] = tested on: hCA XII KO HT29/DOX cells; test: kinetic parameters of doxorubicin efflux in hCA XII KO HT29/DOX cells; format: cell-based, human; settings: doxorubicin alone
Description: as §4

[22] = tested on: P-gp KO A549/DOX cells; test: cells; settings: Homo sapiens, A549, read-out: IC50 of doxorubicin
[23] = tested on: A549 cells; test: kinetic parameters of doxorubicin efflux in A549 cells; format: cell-based, human; settings: doxorubicin alone
Description: as §4

[24] = stability in human plasma, LC-MS/MS; format: in vitro ADME; settings: reference compound, read-out: half-life (t1/2)
Description: The chemical stability of all of these diester derivatives was evaluated in phosphate-buffered solution (PBS) and human plasma samples. The stability analyses were performed by liquid chromatography coupled with a triple quadrupole mass spectrometry system (LC-MS/MS), operating in multiple reaction monitoring (MRM) mode. The LC-MS/MS instrument and parameters used are reported in the Supporting Information.
In these assays, we monitored the variation of our diester molecules’ concentration at four different incubation times both in PBS and in human plasma samples to evaluate their susceptibility toward spontaneous or enzymatic hydrolysis, respectively. By plotting any variation of analyte concentration vs the incubation time, the corresponding degradation profiles in both the tested matrices were obtained. […] Therefore, by plotting the natural logarithm of the quantitative data versus the incubation time, a linear function can be used, and its slope represents the degradation rate constant (k). Accordingly, with the linear function, the half-life (t1/2) of each tested compound can be calculated as follows [drawing 1] […]
Each set of samples was incubated in triplicate at four different times, 0, 30, 60, and 120 min at 37 °C. […] The obtained sample solutions were analyzed by LC-MS/MS methods described in the Supporting Information.

Row | Structure (SMILES) | intracellular retention of doxorubicin [1] | Ki [2] | Ki [3] | intracellular retention of doxorubicin [4] | EC50 [5] | Ki [6] | intracellular retention of doxorubicin [7] | intracellular retention of doxorubicin [8] | EC50 MRP1 [9] | EC50 BCRP [10] | further results
1 | COc1cc(C(=O)OCCCCCCN(CCCOC(=O)c2cc(OC)c(OC)c(OC)c2)CCCOc2ccc3ccc(=O)oc3c2)cc(OC)c1OC [Compound 14, 6-((3-((2-Oxo-2H-chromen-7-yl)oxy)propyl)(3-((3,4,5-trimethoxybenzoyl)oxy)propyl)amino)hexyl 3,4,5-Trimethoxybenzoate] | increased | 82.7 nM | > 10000 nM | did not significantly increase | 180 ± 30 nM | > 10000 nM | increased | did not significantly increase | completely inactive | completely inactive | 
2 | COc1cccc2c1C(=O)c1c(O)c3c(c(O)c1C2=O)C[C@@](O)(C(=O)CO)C[C@@H]3O[C@H]1C[C@H](N)[C@H](O)[C@H](C)O1 [DOX, doxorubicin] |  |  |  |  |  |  |  |  |  |  | IC50 [11]: 460 ± 13 nM; Km [12]: 0.54 ± 0.01 µM; Vmax of doxorubicin efflux [12]: 8.10 ± 0.15 µmol/min; IC50 [13]: 15500 ± 930 nM; Km [14]: 0.55 ± 0.028 µM; Vmax of doxorubicin efflux [14]: 3.21 ± 0.04 µmol/min; IC50 [15]: 5440 ± 1500 nM; IC50 [16]: 1380 ± 30 nM; IC50 [17]: 12000 ± 850 nM; Km [18]: 0.45 ± 0.019 µM; Vmax of doxorubicin efflux [18]: 7.51 ± 0.31 µmol/min; IC50 [19]: 1300 ± 60 nM; Km [20]: 0.55 ± 0.028 µM; Vmax of doxorubicin efflux [20]: 4.08 ± 0.32 µmol/min; Km [21]: 0.58 ± 0.03 µM; Vmax of doxorubicin efflux [21]: 5.47 ± 0.12 µmol/min; IC50 [22]: 900 ± 13 nM; Km [23]: 0.47 ± 0.017 µM; Vmax of doxorubicin efflux [23]: 2.35 ± 0.08 µmol/min
3 | CCOC(=O)C(C)c1cccc(C(=O)c2ccccc2)c1 (stereo not shown) [KEE, ketoprofen ethyl ester] |  |  |  |  |  |  |  |  |  |  | half-life at 1 μM [24]: ≤ 2 h
4 | COc1cc(C(=O)OCCCCCN(CCCOC(=O)c2cc(OC)c(OC)c(OC)c2)CCCOc2ccc3ccc(=O)oc3c2)cc(OC)c1OC [Compound 5, 5-((3-((2-Oxo-2H-chromen-7-yl)oxy)propyl)(3-((3,4,5-trimethoxybenzoyl)oxy)propyl)amino)pentyl 3,4,5-Trimethoxybenzoate] | increased | 40.7 nM | > 10000 nM | did not significantly increase | 150 ± 20 nM | > 10000 nM | increased | did not significantly increase | completely inactive | completely inactive | 
